According to patent US20160009686A1, “VEGFR3 INHIBITORS” (CANCER THERAPEUTICS CRC PTY LIMITED, priority 2012, published 2016):

These compounds were tested against VEGFR3 cytoplasmic domain (Homo sapiens, UniProt P35916) (assay: VEGFR3 Biochemical Assay (AlphaScreen)). Details: GST-fusion enzyme, 500 μM ATP, 90 minutes at 30 degree Celsius (modified form in some cases: Hexa-His-fusion enzyme, 1 μM ATP); read-out: IC50.
VEGFR3 cytoplasmic domain, sequence (P35916 798-1298 isoform P35916-1): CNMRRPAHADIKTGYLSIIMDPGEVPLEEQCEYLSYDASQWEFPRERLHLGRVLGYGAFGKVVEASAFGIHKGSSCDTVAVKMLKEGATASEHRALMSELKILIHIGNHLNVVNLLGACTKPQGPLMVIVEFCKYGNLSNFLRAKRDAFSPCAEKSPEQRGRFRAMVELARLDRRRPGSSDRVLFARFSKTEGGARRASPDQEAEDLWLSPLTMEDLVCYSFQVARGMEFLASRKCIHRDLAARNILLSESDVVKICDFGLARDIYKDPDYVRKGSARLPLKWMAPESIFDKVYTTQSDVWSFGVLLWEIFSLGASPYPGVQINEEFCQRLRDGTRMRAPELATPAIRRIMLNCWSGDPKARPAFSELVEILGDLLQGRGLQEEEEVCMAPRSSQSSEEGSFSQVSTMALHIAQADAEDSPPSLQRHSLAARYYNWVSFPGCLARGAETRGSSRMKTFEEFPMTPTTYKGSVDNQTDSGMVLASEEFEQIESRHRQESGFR

In order of falling IC50:
1. NC(=O)C1(c2ccccc2CCc2nc(Nc3ncco3)ncc2Cl)CC1 [Compound 11, 1-(2-(2-(5-Chloro-2-(oxazol-2-ylamino)pyrimidin-4-yl)ethyl)phenyl)cyclopropanecarboxamide]  1300 nM
2. CC(C(N)=O)c1ccccc1CCc1nc(Nc2ccc(C3CCNCC3)nc2)ncc1C(F)(F)F (centres unmarked) [Compound 62, 2-(2-(2-(2-((6-(Piperidin-4-yl)pyridin-3-yl)amino)-5-(trifluoromethyl)pyrimidin-4-yl)ethyl)phenyl)propanamide]  492 nM
3. Cn1ccc(Nc2ncc(Cl)c(CCc3ccccc3C3(C(N)=O)CC3)n2)n1 [Compound 28, 1-(2-(2-(5-Chloro-2-((1-methyl-1H-pyrazol-3-yl)amino)pyrimidin-4-yl)ethyl)phenyl)cyclopropanecarboxamide]  268 nM
4. NC(=O)C1(c2cccc(CCc3nc(Nc4cnn(C5CCNCC5)c4)ncc3C(F)(F)F)c2)CC1 [Compound 53, 1-(3-(2-(2-((1-(Piperidin-4-yl)-1H-pyrazol-4-yl)amino)-5-(trifluoromethyl)pyrimidin-4-yl)ethyl)phenyl)cyclopropanecarboxamide]  228 nM
5. CC(C(N)=O)c1ccccc1CCc1nc(Nc2cncnc2)ncc1Cl (centres unmarked) [Compound 40, 2-(2-(2-(5-Chloro-2-(pyrimidin-5-ylamino)pyrimidin-4-yl)ethyl)phenyl) propanamide]  160 nM
6. CC(C(N)=O)c1ccccc1CCc1nc(Nc2ccnnc2)ncc1Cl (centres unmarked) [Compound 42, 2-(2-(2-(5-Chloro-2-(pyridazin-4-ylamino)pyrimidin-4-yl)ethyl)phenyl)propanamide]  154 nM
7. COc1ccc(Nc2ncc(C(F)(F)F)c(CCc3ccccc3C(C)C(N)=O)n2)cn1 (centres unmarked) [Compound 61, 2-(2-(2-(2-((6-Methoxypyridin-3-yl)amino)-5-(trifluoromethyl)pyrimidin-4-yl)ethyl)phenyl) propanamide]  118 nM
8. CC(N)c1ccc(Nc2ncc(Cl)c(CCc3ccccc3C3(C(N)=O)CC3)n2)cn1 (centres unmarked) [Compound 33, 1-(2-(2-(2-((6-(1-Aminoethyl)pyridin-3-yl)amino)-5-chloropyrimidin-4-yl)ethyl)phenyl)cyclopropanecarboxamide]  60 nM
9. N#Cc1ccc(Nc2ncc(Cl)c(CCc3ccccc3C3(C(N)=O)CC3)n2)cn1 [Compound 31, 1-(2-(2-(5-Chloro-2-((6-cyanopyridin-3-yl)amino)pyrimidin-4-yl)ethyl)phenyl)cyclopropanecarboxamide]  48 nM
10. Cc1cc(Nc2ncc(Cl)c(CCc3ccccc3C3(C(N)=O)CC3)n2)n[nH]1 [Compound 27, 1-(2-(2-(5-Chloro-2-((5-methyl-1H-pyrazol-3-yl)amino)pyrimidin-4-yl)ethyl)phenyl)cyclopropanecarboxamide]  47 nM
11. Cc1cnc(Nc2ccc(C(C)N)cc2)nc1CCc1ccccc1C1(C(N)=O)CC1 (centres unmarked) [Compound 50, 1-(2-(2-(2-((4-(1-Aminoethyl)phenyl)amino)-5-methylpyrimidin-4-yl)ethyl)phenyl)cyclopropanecarboxamide]  46 nM
12. Cc1ccc(Nc2ncc(Cl)c(CCc3ccccc3C(C)C(N)=O)n2)cn1 (centres unmarked) [Compound 41, 2-(2-(2-(5-chloro-2-(6-methylpyridin-3-ylamino)pyrimidin-4-yl)ethyl)phenyl) propanamide]  45 nM
13. CC(=O)c1ccc(Nc2ncc(Cl)c(CCc3ccccc3C3(C(N)=O)CC3)n2)cn1 [Compound 32, 1-(2-(2-(2-((6-Acetylpyridin-3-yl)amino)-5-chloropyrimidin-4-yl)ethyl)phenyl)cyclopropanecarboxamide]  44 nM
14. CC(C(N)=O)c1ccccc1CCc1nc(Nc2cccnc2)ncc1Cl (centres unmarked) [Compound 39, 2-(2-(2-(5-Chloro-2-(pyridin-3-ylamino)pyrimidin-4-yl)ethyl)phenyl) propanamide]  44 nM
15. Cc1cnc(Nc2cnn(C)c2)nc1CCc1ccccc1C(C)C(N)=O (single isomer, unassigned) [Compound 51-2A, 2-(2-(2-(5-methyl-2-((1-methyl-1H-pyrazol-4-yl)amino)pyrimidin-4-yl)ethyl)phenyl)propanamide]  41 nM
16. CC(C(N)=O)c1ccccc1CCc1nc(Nc2ccc(C3CCN(C)CC3)nc2)ncc1Cl (centres unmarked) [Compound 38, 2-(2-(2-(5-Chloro-2-((6-(1-methylpiperidin-4-yl)pyridin-3-yl)amino)pyrimidin-4-yl)ethyl)phenyl)propanamide]  32 nM
17. CC(C(N)=O)c1ccccc1CCc1nc(Nc2ccc(C3CCNCC3)nc2)ncc1Cl (centres unmarked) [Compound 37, 2-(2-(2-(5-Chloro-2-((6-(piperidin-4-yl)pyridin-3-yl)amino)pyrimidin-4-yl)ethyl)phenyl)propanamide]  31 nM
18. CC(C(N)=O)c1ccccc1CCc1nc(Nc2ccc(C3CCN(C)CC3)nc2)ncc1C(F)(F)F (centres unmarked) [Compound 63, 2-(2-(2-(2-((6-(1-Methylpiperidin-4-yl)pyridin-3-yl)amino)-5-(trifluoromethyl)pyrimidin-4-yl)ethyl)phenyl)propanamide]  28 nM
19. Cc1cnc(Nc2cnn(C)c2)nc1CCc1ccccc1C(C)C(N)=O (single isomer, unassigned) [Compound 51-1A, 2-(2-(2-(5-methyl-2-((1-methyl-1H-pyrazol-4-yl)amino)pyrimidin-4-yl)ethyl)phenyl)propanamide]  25 nM
20. Cc1cnc(Nc2ccc(C3CCN(C)CC3)nc2)nc1CCc1ccccc1C1(C(N)=O)CC1 [Compound 49, 1-(2-(2-(5-Methyl-2-((6-(1-methylpiperidin-4-yl)pyridin-3-yl)amino)pyrimidin-4-yl)ethyl)phenyl)cyclopropanecarboxamide]  23 nM
21. NC(=O)C1(c2ccccc2CCc2nc(Nc3ccc(C4CCNCC4)cc3)ncc2C(F)(F)F)CCC1 [Compound 52, 1-(2-(2-(2-((4-(Piperidin-4-yl)phenyl)amino)-5-(trifluoromethyl)pyrimidin-4-yl)ethyl)phenyl)cyclobutanecarboxamide]  23 nM
22. NC(=O)C1(c2ccccc2CCc2nc(Nc3ccnnc3)ncc2Cl)CC1 [Compound 22, 1-(2-(2-(5-Chloro-2-(pyridazin-4-ylamino)pyrimidin-4-yl)ethyl)phenyl)cyclopropanecarboxamide]  20 nM
23. CC(C(N)=O)c1ccccc1CCc1nc(Nc2cn[nH]c2)ncc1C(F)(F)F (centres unmarked) [Compound 54, 2-(2-(2-(2-((1H-Pyrazol-4-yl)amino)-5-(trifluoromethyl)pyrimidin-4-yl)ethyl)phenyl)propanamide]  17 nM
24. Cc1cnc(Nc2cn[nH]c2)nc1CCc1ccccc1C1(C(N)=O)CC1 [Compound 46, 1-(2-(2-(2-((1H-Pyrazol-4-yl)amino)-5-methylpyrimidin-4-yl)ethyl)phenyl)cyclopropanecarboxamide]  13 nM
25. Cc1nn(C)cc1Nc1ncc(Cl)c(CCc2ccccc2C2(C(N)=O)CC2)n1 [Compound 26, 1-(2-(2-(5-Chloro-2-((1,3-dimethyl-1H-pyrazol-4-yl)amino)pyrimidin-4-yl)ethyl)phenyl)cyclopropanecarboxamide]  12 nM
26. CC(C(N)=O)c1ccccc1CCc1nc(Nc2cnn(C3CCNCC3)c2)ncc1Cl (centres unmarked) [Compound 43, 2-(2-(2-(5-Chloro-2-(1-(piperidin-4-yl)-1H-pyrazol-4-ylamino)pyrimidin-4-yl)ethyl)phenyl) propanamide]  12 nM
27. Cc1cnc(Nc2cnn(C3CCN(C)CC3)c2)nc1CCc1ccccc1C1(C(N)=O)CC1 [Compound 48, 1-(2-(2-(5-Methyl-2-((1-(1-methylpiperidin-4-yl)-1H-pyrazol-4-yl)amino)pyrimidin-4-yl)ethyl)phenyl)cyclopropanecarboxamide]  12 nM
28. NC(=O)C1(c2ccccc2CCc2nc(Nc3cnn(CC(F)(F)F)c3)ncc2Cl)CC1 [Compound 29, 1-(2-(2-(5-Chloro-2-((1-(2,2,2-trifluoroethyl)-1H-pyrazol-4-yl)amino)pyrimidin-4-yl)ethyl)phenyl)cyclopropanecarboxamide]  8 nM
29. Cc1n[nH]cc1Nc1ncc(Cl)c(CCc2ccccc2C2(C(N)=O)CC2)n1 [Compound 25, 1-(2-(2-(5-Chloro-2-((3-methyl-1H-pyrazol-4-yl)amino)pyrimidin-4-yl)ethyl)phenyl)cyclopropanecarboxamide]  7 nM
30. NC(=O)C1(c2ccccc2CCc2nc(Nc3cnn(C(F)F)c3)ncc2Cl)CC1 [Compound 34, 1-(2-(2-(5-Chloro-2-((1-(difluoromethyl)-1H-pyrazol-4-yl)amino)pyrimidin-4-yl)ethyl)phenyl)cyclopropanecarboxamide]  7 nM
31. NC(=O)C1(c2ccccc2CCc2nc(Nc3cnn(C4CCNCC4)c3)ncc2C(F)(F)F)CC1 [Compound 66, 1-(2-(2-(2-((1-(Piperidin-4-yl)-1H-pyrazol-4-yl)amino)-5-(trifluoromethyl)pyrimidin-4-yl)ethyl)phenyl)cyclopropanecarboxamide]  7 nM
32. Cc1cnc(Nc2cnn(C)c2)nc1CCc1ccccc1C1(C(N)=O)CC1 [Compound 47, 1-(2-(2-(5-Methyl-2-((1-methyl-1H-pyrazol-4-yl)amino)pyrimidin-4-yl)ethyl)phenyl)cyclopropanecarboxamide]  5 nM
33. CC(C)n1cc(Nc2ncc(Cl)c(CCc3ccccc3C3(C(N)=O)CC3)n2)cn1 [Compound 30, 1-(2-(2-(5-Chloro-2-((1-isopropyl-1H-pyrazol-4-yl)amino)pyrimidin-4-yl)ethyl)phenyl)cyclopropanecarboxamide]  4 nM
34. Cn1cc(Nc2ncc(C(F)(F)F)c(CCc3ccccc3C3(C(N)=O)CC3)n2)cn1 [Compound 65, 1-(2-(2-(2-((1-Methyl-1H-pyrazol-4-yl)amino)-5-(trifluoromethyl)pyrimidin-4-yl)ethyl)phenyl)cyclopropanecarboxamide]  3 nM

Same assay, conditions: IC50 (nM), GST-fusion enzyme, 500 μM ATP, 90 minutes at 30 degree Celsius (modified form in some cases: Hexa-His-fusion enzyme, 1 μM ATP)

Work on `NC(=O)C1(c2ccccc2CCc2nc(Nc3ccccc3)ncc2Cl)CC1` [Compound 23, 1-(2-(2-(5-Chloro-2-(phenylamino)pyrimidin-4-yl)ethyl)phenyl)cyclopropanecarboxamide] yielded an IC50 of 11 nM.
